Molecules are shown by their SMILES.

Ki data for four molecules are collected here from article PMC6937156, “The nature of the ligand’s side chain interacting with the S1'-subsite of metallocarboxypeptidase T (from Thermoactinomyces vulgaris) determines the geometry of the tetrahedral transition complex” (PLoS ONE, 2019).

The target in this test is T1, carboxypeptidase T (CPT) (Thermoactinomyces vulgaris, UniProt P29068).
T1 construct: mature enzyme; one molecule in asymmetric unit
The test is described as follows: inhibition of tripeptide hydrolysis, integral kinetic curves at […] nm. The test is classed as biochemical.

As to `N=C(N)NCCC[C@H](NS(N)(=O)=O)C(=O)O` [SArg, N-sulfamoyl-L-arginine], the affinity corresponds to a Ki of 340 µM. `CC(C)C[C@H](NS(N)(=O)=O)C(=O)O` [SLeu, N-(aminosulfonyl)-L-leucine] had a Ki of 8.94 µM. Under `NS(=O)(=O)N[C@@H](CCC(=O)O)C(=O)O` [SGlu, N-(aminosulfonyl)-L-glutamic acid] stands 3090 µM; under `NS(=O)(=O)N[C@@H](Cc1ccccc1)C(=O)O` [SPhe, N-sulfamoyl-L-phenylalanine], 35.1 µM.
